According to patent US9783524B2, “Protein tyrosine kinase modulators and methods of use” (BETTA PHARMACEUTICALS CO., LTD., priority 2013, dated 2017):
Where two headings read alike, the source gives them in different places.

What was measured:
ALK (h) = format: biochemical, human; conditions: 0.1 μM test compound, 10 μM ATP; remaining activity relative to DMSO control = 100%
Protocol: (§1) Assay conditions included 10 μM ATP and 100 nM test compounds.
(§2) All reactions are initiated by the addition of the MgATP mix. After incubation for 40 minutes at room temperature, the reaction is stopped by the addition of 3% phosphoric acid solution. 10 μL of the reaction is then spotted onto a P30 filtermat and washed three times for 5 minutes in 75 mM phosphoric acid and once in methanol prior to drying and scintillation counting. This assay is performed by Millipore. The experiment is carried out in duplicate. The value for the control sample (DMSO) was set to 100%, and the values for the compound-treated samples were expressed as activity relative to the control sample.

EGFR (T790M) (h) = format: biochemical, human
Protocol: as §1, §2

EGFR (T790M, L858R) (h) = format: biochemical, human
Protocol: as §1
(§3) All reactions are initiated by the addition of the MgATP mix. After incubation for 40 minutes at room temperature, the reaction is stopped by the addition of 3% phosphoric acid solution. 10 μL of the reaction is then spotted onto a P30 filtermat and washed three times for 5 minutes in 75 mM phosphoric acid and once in methanol prior to drying and scintillation counting. […] The experiment is carried out in duplicate. The value for the control sample (DMSO) was set to 100%, and the values for the compound-treated samples were expressed as activity relative to the control sample.
(§4) (specific activity approx. 500 cpm/pmol, concentration as required) and 0.1 μM test compound.

[1] = test system: activated and resistant T790M forms of EGFR; assay: In vitro cellular assays, overall statement; format: cell-based; conditions: result in words
Protocol: (§5) Effects of test compounds on in vitro proliferation were measured by MTS cell viability assay.

EGFR (L858R) (h) = format: biochemical, human
Protocol: as §1, §3, §4

EGFR (h) = format: biochemical, human
Protocol: as §1, §3, §4

[2] = test system: H1975 (EGFR L858R/T790M) NSCLC cells; assay: Cell proliferation assay (MTS cell viability); format: cell-based; conditions: Homo sapiens, NCI-H1975, 72 h, 3 days of exposure
Protocol: as §5
(§6) Prepare test compounds in each well with a final medium volume of 200 μl;
Incubate for 3 days of exposure;
(§7) Prepare reagents following the instructions in the Cell Proliferation Assay kit (Promega);
(§8) Change to serum-free medium with a final volume of 100 μl/well. Prepare a set of wells with medium only for background subtraction;
(§9) Add 20 μl MTS solution containing PMS to each well (final concentration of MTS will be 0.33 mg/ml);
(§10) Incubate 1 to 4 hours at 37° C. in a humidified, 5% CO2 atmosphere.
(§11) Record absorbance at 490 nm using VICTOR™X5 plate reader (PerkinElmer).
(§12) All experimental points were set up in three wells and all experiments were repeated at least three times.

[3] = test system: HCC827 (EGFR Del) NSCLC cells; assay: Cell proliferation assay (MTS cell viability); format: cell-based; conditions: Homo sapiens, 72 h, 3 days of exposure
Protocol: as §5, §6
Incubate for 3 days of exposure;
as §7, §8, §9, §10, §11, §12

[4] = test system: A549 (EGFR WT) NSCLC cells; assay: Cell proliferation assay (MTS cell viability); format: cell-based; conditions: Homo sapiens, 72 h, 3 days of exposure
Protocol: as §5
A549 cells were maintained in Ham's F12K medium (Gibco) supplemented with 10% FBS, 100 units/mL penicillin, 100 units/mL streptomycin, and 2 mM glutamine.
as §6
Incubate for 3 days of exposure;
as §7, §8, §9, §10, §11, §12

A431 (EGFR WT) cells = assay: Cell proliferation assay (MTS cell viability); format: cell-based; conditions: Homo sapiens, A-431, 72 h, 3 days of exposure
Protocol: as §5
A431 cells were maintained in DMEM (Gibco) supplemented with 10% FBS, 100 units/mL penicillin, 100 units/mL streptomycin, and 2 mM glutamine.
2. Prepare test compounds in each well with a final medium volume of 200 μl;
3. Incubate for 3 days of exposure;
4. Prepare reagents following the instructions in the Cell Proliferation Assay kit (Promega);
5. Change to serum-free medium with a final volume of 100 μl/well. Prepare a set of wells with medium only for background subtraction;
6. Add 20 μl MTS solution containing PMS to each well (final concentration of MTS will be 0.33 mg/ml);
7. Incubate 1 to 4 hours at 37° C. in a humidified, 5% CO2 atmosphere.
8. Record absorbance at 490 nm using VICTOR™X5 plate reader (PerkinElmer).
as §12

lung cancer = conditions: all lung cancer patients, not selected for mutant EGFR; cited from earlier work
[5] = 0.1 μM test compound, 10 μM ATP, remaining activity relative to DMSO control = 100%

| Structure (SMILES) | Activity (control) % ALK (h) (ALK (h)) | Activity (control) % EGFR (T790M) (h) (EGFR (T790M) (h); [5]) | Activity (control) % EGFR (T790M, L858R) (h) (EGFR (T790M, L858R) (h); [5]) | activity against both activated and resistant T790M forms of EGFR in vitro cellular assays [1] | Activity (control) % EGFR (h) (EGFR (h); [5]) | Activity (control) % EGFR (L858R) (h) (EGFR (L858R) (h); [5]) | further results |
| --- | --- | --- | --- | --- | --- | --- | --- |
| C=CC(=O)Nc1cc(Nc2ncc(Cl)c(Nc3ccccc3C(=O)C(=O)N(C)C)n2)ccc1OC [Example 65, N-(5-(5-chloro-4-(2-(2-(dimethylamino)-2-oxoacetyl)phenylamino)pyrimidin-2-ylamino)-2-methoxyphenyl)acrylamide] | 19% | 80% | 25% | potent activity |  |  |  |
| C=CC(=O)Nc1cc(Nc2ncc(Cl)c(Nc3ccccc3C(=O)C(=O)N(C)C)n2)c(OC)cc1F [Example 66, N-(5-(5-chloro-4-(2-(2-(dimethylamino)-2-oxoacetyl)phenylamino)pyrimidin-2-ylamino)-2-fluoro-4-methoxyphenyl)acrylamide] | 35% | 66% | 24% | potent activity |  |  |  |
| C=CC(=O)Nc1ccc(OC)c(Nc2ncc(Cl)c(Nc3ccccc3C(=O)C(=O)N(C)C)n2)c1 [Example 67, N-(3-(5-chloro-4-(2-(2-(dimethylamino)-2-oxoacetyl)phenylamino)pyrimidin-2-ylamino)-4-methoxyphenyl)acrylamide] | 13% |  |  | potent activity |  |  | Activity (control) % EGFR (L858R) (h) (EGFR (L858R) (h)): 85%; Activity (control) % EGFR (T790M) (h) (EGFR (T790M) (h)): 50%; Activity (control) % EGFR (T790M, L858R) (h) (EGFR (T790M, L858R) (h)): 9% |
| C=CC(=O)Nc1cc(Nc2ncc(Cl)c(Nc3ccccc3C(=O)C(=O)N(C)C)n2)c(OC)cc1N1CCN(C)CC1 [Example 74, N-(5-(5-chloro-4-(2-(2-(dimethylamino)-2-oxoacetyl)phenylamino)pyrimidin-2-ylamino)-4-methoxy-2-(4-methylpiperazin-1-yl)phenyl)acrylamide] | 9% |  |  |  |  |  | Activity (control) % EGFR (h) (EGFR (h)): 110%; Activity (control) % EGFR (T790M) (h) (EGFR (T790M) (h)): 62%; IC50 [2]: 50 nM; IC50 [3]: 30 nM; IC50 [4]: 620 nM; IC50 (A431 (EGFR WT) cells): 50 nM |
| C=CC(=O)Nc1cc(Nc2ncc(Cl)c(Nc3ccccc3C(=O)C(=O)N(C)CCN(C)C)n2)ccc1OC [Example 102, N-(5-(5-chloro-4-(2-(2-((2-(dimethylamino)ethyl)(methyl)amino)-2-oxoacetyl)phenylamino)pyrimidin-2-ylamino)-2-methoxyphenyl)acrylamide] | 5% | 40% | 5% |  | 98% | 57% |  |
| C=C(CN1CCOCC1)C(=O)Nc1cccc(Nc2ncc(Cl)c(Nc3ccccc3C(=O)C(=O)N(C)C)n2)c1 [Example 112, N-(3-(5-chloro-4-(2-(2-(dimethylamino)-2-oxoacetyl)phenylamino)pyrimidin-2-ylamino)phenyl)-2-(morpholinomethyl)acrylamide] | 21% | 14% | 1% | potent activity | 85% | 66% |  |
| C=C(CN1CCCCC1)C(=O)Nc1cccc(Nc2ncc(Cl)c(Nc3ccccc3C(=O)C(=O)N(C)C)n2)c1 [Example 113, N-(3-(5-chloro-4-(2-(2-(dimethylamino)-2-oxoacetyl)phenylamino)pyrimidin-2-ylamino)phenyl)-2-(piperidin-1-ylmethyl)acrylamide] | 19% | 16% | 3% |  | 88% | 78% |  |
| CN(C)C/C=C/C(=O)Nc1cccc(Nc2ncc(Cl)c(Nc3ccccc3C(=O)C(=O)N(C)C)n2)c1 [Example 114, (E)-N-(3-(5-chloro-4-(2-(2-(dimethylamino)-2-oxoacetyl)phenylamino)pyrimidin-2-ylamino)phenyl)-4-(dimethylamino)but-2-enamide] | 10% | 47% | 8% |  | 91% | 52% |  |
| COc1cc(Nc2ncc(Cl)c(Nc3ccccc3C(=O)C(=O)N(C)C)n2)ccc1N1CCC(N(C)C)CC1 [Example 118, 2-(2-(5-chloro-2-(4-(4-(dimethylamino)piperidin-1-yl)-3-methoxyphenylamino)pyrimidin-4-ylamino)phenyl)-N,N-dimethyl-2-oxoacetamide] | 3% |  |  | potent activity |  |  | Activity (control) % EGFR (h) (EGFR (h)): 82%; Activity (control) % EGFR (L858R) (h) (EGFR (L858R) (h)): 29%; Activity (control) % EGFR (T790M) (h) (EGFR (T790M) (h)): 18%; Activity (control) % EGFR (T790M, L858R) (h) (EGFR (T790M, L858R) (h)): 2% |
| C=CC(=O)Nc1cc(Nc2ncc(Cl)c(Nc3ccccc3C(=O)C(=O)N(C)C)n2)ccc1OC1CCOC1 (centres unmarked) [Example 124, N-(5-(5-chloro-4-(2-(2-(dimethylamino)-2-oxoacetyl)phenylamino)pyrimidin-2-ylamino)-2-(tetrahydrofuran-3-yloxy)phenyl)acrylamide] | 16% | 78% | 20% |  | 109% | 100% |  |
| C=C(CN(C)CCN(C)C)C(=O)Nc1ccc(OC)c(Nc2ncc(Cl)c(Nc3ccccc3C(=O)C(=O)N(C)C)n2)c1 [Example 126, N-(3-(5-chloro-4-(2-(2-(dimethylamino)-2-oxoacetyl)phenylamino)pyrimidin-2-ylamino)-4-methoxyphenyl)-2-(((2-(dimethylamino)ethyl)(methyl)amino)methyl)acrylamide] | 19% | 5% | 2% |  | 93% | 47% |  |
| C#Cc1cccc(Nc2ncnc3cc(OCCOC)c(OCCOC)cc23)c1 [erlotinib] |  |  |  |  |  |  | likelihood of tumor shrinkage (response rate) (lung cancer): 8-10%; median time to tumor progression (lung cancer): approximately 2 months |
